Experimental data reported in US11648258B2, “Method and compounds for inhibiting the MCM complex and their application in cancer treatment” (priority 2012, dated 2023).

Columns and labels:
[1] = biological target: T1, hMcm2 and hMcm6 chromatin association (Homo sapiens, UniProt P49736+Q14566); experiment: Chromatin binding assay (pre-RC assembly) in HeLa cells; type: cell-based
T1 construct: endogenous in cells; host or cells: HeLa
Procedure: Cells were harvested by trypsinization and washed twice with cold PBS. Extraction buffer (EB; ˜20 μl/10^6 cells) (100 mM KCl, 50 mM HEPES-KOH pH7.5, 2.5 mM MgCl2, 50 mM NaF, 5 mM Na4P2O7, 0.1 mM NaVO3, 0.5% Triton X-100, 1 mM PMSF, 2 μg/ml Pepstatin A, 20 μg/ml Leupeptin, 20 μg/ml Aprotinin, 0.2 mM Pefabloc, 2 mM Benzamidine HCl and 0.2 mg/ml Bacitracin) was added to resuspend and lyse the cells by pippetting. Cells were set on ice for 10 min, and flicked to mix every 2-3 min during the incubation. A volume of 30% ice-cold sucrose equal to EB containing protease inhibitors as in EB was added to the bottom of tube. The tube was spun at top speed in a microcentrifuge for 10 min to separate the chromatin and free proteins. The supernatant was transferred to a new tube and kept on ice. […]
As the component of pre-RC, the MCM complex plays a central role in the licensing of DNA replication. […] In FIGS. 5A and B, asynchronous Hela cells were treated with 17beta-Deacetyltanghinin for 24 hrs and analyzed by the chromatin binding assay (FIG. 5A). Untreated cells (Untreat.), cells treated with the solvent DMSO, and those treated with 0.2, 0.4 or 0.8∝g/ml 17beta-Deacetyltanghinin were analyzed for pre-RC components in the chromatin and supernatant fractions by immunoblotting (FIG. 5A). […] Each cell sample was also analyzed for cell cycle distribution by flow cytometry (FIG. 5B). […]

[2] = tested on: cancer cells (HeLa, HepG2); experiment: Flow cytometry / Annexin V staining (cell cycle, apoptosis) in cancer cells; type: cell-based, human
Procedure: Both floating and attached cells were collected and washed once with PBS. Cells were fixed in 70% ethanol for 1 hr to overnight at −20° C., washed thoroughly with PBS, and then stained in 50 μg/ml RNase A, 0.1% Triton X-100, 0.1 mM EDTA (pH 7.4), and 50 μg/ml propidium iodide for 30 min at 4° C. Samples were analyzed with the FACSort instrument (Becton Dickinson).
Moreover, inhibition of DNA replication and subsequent induction of apoptosis by 17beta-Deacetyltanghinin could be shown by flow cytometry. In FIG. 7. Hela cells were blocked at M phase by Nocodazole (Noc.; FIG. 7A), the G1/S transition by mimosine (MMS; FIG. 7B), or at early S phase by Hydroxyurea (HU; FIG. 7C) and then released into fresh medium in the presence of 17beta-Deacetyltanghinin (DAT). The cells at different time points after release were analyzed by follow cytometry. Ayn. means asynchronous cells. Untreated cells and cells treated with the solvent DMSO could complete M, G1 and S phases after release (FIG. 7A). […] Similarly, cells released from the Mimosine (MMS) arrest (at the G1/S transition; FIG. 7B) or Hydroxyurea (HU) arrest (in early S phase; FIG. 7C) could not finish S phase in the presence of 17beta-Deacetyltanghinin.
In FIG. 8A, flow cytometry was performed to analyze the DNA contents in HepG2 and L-02 cells treated with 17beta-Deacetyltanghinin at various concentrations for 24 hrs. In FIG. 8B, Hela cells were treated with 17beta-Deacetyltanghinin for 24 hrs and labeled with Annexin V-Cy3 (Arm. Cy3) for 20 min. Mitoxantrone (MTX), a clinical anticancer drug that can induce apoptosis in cancer cells, was used as a positive control.

[3] = In vivo toxicity assessment in nude mice; conditions: 5.0 mg/kg intraperitoneal for 20 days
Procedure: A further set of animal experiments was then conducted with a longer period of time, in which fifteen drug injections at 5.0 mg/kg were performed one week after tumor inoculation when the tumor size reached 0.05-0.1 cm^3. In FIG. 10B, drug injections and tumor size measurements were performed on the days represented by the data points, and the photographs in FIG. 10C were taken on day 20.
In FIG. 11, S refers to solvent-treated mice without tumor inoculation; S+T represents solvent-treated mice with tumor inoculation; DAT refers to 17beta-Deacetyltanghinin-treated mice without tumor inoculation; DAT+T represents 17beta-Deacetyltanghinin-treated mice with tumor inoculation; and P+T refers to Paelitaxel-treated mice with tumor inoculation. Three out of the five mice with intermediate tumor size in each group were selected for physiological parameters examination. The tumors (T) and internal organs including liver (L), heart (H) and kidney (K) were dissected from each mouse.
Furthermore, blood from each mouse was also collected for the tests of the ALT (alanine aminotransferase) and LDH (Lactate dehydrogenase) activities. […] The results of both tests were represented as the values of differently treated mice relative to the untreated ones.

T1 sequence (P49736 2-904 limits assumed): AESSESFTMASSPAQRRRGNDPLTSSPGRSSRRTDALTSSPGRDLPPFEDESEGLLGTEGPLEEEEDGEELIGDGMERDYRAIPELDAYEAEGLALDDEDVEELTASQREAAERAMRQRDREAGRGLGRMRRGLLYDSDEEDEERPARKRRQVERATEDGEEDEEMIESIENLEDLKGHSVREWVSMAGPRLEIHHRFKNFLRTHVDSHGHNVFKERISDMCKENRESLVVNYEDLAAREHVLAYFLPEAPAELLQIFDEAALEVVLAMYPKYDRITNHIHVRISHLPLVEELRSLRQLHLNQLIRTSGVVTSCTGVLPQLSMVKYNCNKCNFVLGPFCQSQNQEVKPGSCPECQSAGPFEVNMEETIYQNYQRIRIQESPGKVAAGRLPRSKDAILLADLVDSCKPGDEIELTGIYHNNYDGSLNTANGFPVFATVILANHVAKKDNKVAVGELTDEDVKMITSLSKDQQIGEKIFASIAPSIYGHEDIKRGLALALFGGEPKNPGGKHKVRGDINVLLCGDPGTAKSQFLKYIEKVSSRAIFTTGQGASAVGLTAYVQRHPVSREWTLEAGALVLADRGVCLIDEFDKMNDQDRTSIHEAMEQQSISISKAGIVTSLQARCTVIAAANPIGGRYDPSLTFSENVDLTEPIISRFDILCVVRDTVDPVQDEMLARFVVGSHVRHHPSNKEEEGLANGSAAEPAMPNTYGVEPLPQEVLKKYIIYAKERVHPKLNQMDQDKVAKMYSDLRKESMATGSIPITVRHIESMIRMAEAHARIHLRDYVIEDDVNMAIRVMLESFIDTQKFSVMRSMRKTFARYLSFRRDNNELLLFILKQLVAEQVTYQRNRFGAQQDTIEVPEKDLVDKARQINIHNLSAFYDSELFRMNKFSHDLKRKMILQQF
T1 sequence (Q14566 whole entry): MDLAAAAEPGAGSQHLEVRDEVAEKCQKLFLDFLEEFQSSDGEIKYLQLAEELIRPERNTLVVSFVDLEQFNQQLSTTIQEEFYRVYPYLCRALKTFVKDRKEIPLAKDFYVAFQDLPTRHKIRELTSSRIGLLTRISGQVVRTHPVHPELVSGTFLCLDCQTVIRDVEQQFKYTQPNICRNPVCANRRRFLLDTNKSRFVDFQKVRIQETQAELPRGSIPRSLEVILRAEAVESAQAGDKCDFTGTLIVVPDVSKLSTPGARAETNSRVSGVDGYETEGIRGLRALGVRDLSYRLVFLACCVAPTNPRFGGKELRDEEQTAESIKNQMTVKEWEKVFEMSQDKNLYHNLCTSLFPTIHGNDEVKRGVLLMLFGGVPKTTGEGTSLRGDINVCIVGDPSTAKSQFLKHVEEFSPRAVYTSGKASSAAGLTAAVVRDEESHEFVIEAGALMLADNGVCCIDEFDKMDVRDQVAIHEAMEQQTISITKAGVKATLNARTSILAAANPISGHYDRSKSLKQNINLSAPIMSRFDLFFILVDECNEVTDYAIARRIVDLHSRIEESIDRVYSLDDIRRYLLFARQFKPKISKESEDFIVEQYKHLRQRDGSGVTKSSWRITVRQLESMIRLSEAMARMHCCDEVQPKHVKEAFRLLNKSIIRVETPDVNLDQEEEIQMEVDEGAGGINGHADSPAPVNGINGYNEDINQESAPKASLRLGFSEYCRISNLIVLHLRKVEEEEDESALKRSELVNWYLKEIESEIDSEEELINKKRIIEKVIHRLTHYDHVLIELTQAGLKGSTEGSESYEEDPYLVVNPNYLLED

In the case of `COC1C(O)[C@H](O[C@H]2CC[C@]3(C)C4CC[C@]5(C)[C@@H](C6=CC(=O)OC6)CC[C@]5(O)[C@@]45O[C@H]5C[C@@H]3C2)OC(C)[C@@H]1O` (stereo partly drawn) [17beta-Deacetyltanghinin, 3β-O-(3-O-methyl-6-deoxy-α-L-glucopyranosyl)-7β,8β-epoxy-14β-hydroxy-card-20(22)-enolide], the “MCM loading onto chromatin” value ([1]; HeLa cells released from nocodazole M phase arrest) is reported as “largely prevented”, the “hMcm2 and hMcm6 in chromatin fractions” value ([1]; asynchronous HeLa cells, 24 hrs, 0.2, 0.4 or 0.8 ∝g/ml) is reported as “significantly reduced” and the “Annexin V staining (apoptosis)” value ([2]; HeLa cells, 24 hrs, Annexin V-Cy3) is reported as “could be stained by Annexin V”. For the same compound, the “cell cycle progression after release from Nocodazole arrest” value ([2]; HeLa cells, flow cytometry) was “could complete mitosis but could not enter S phase”, the “induction of apoptosis (sub-G1 population, flow cytometry)” value ([2]; cancer cells) was “induced apoptotic cell death in cancer cells” and the “appearance of organs (liver, heart, kidney)” value [3] was “All organs looked normal”. The body weight loss [3] was “no obvious weight loss”, the “organ weights relative to body weights” value [3] was “not significantly changed” and the “blood ALT (printed ATL) or LDH level” value ([3]; relative to untreated mice) was “did not induce significant increase”.
